Experimental data taken from patent US9328106B2, “Cyclic ether pyrazol-4-yl-heterocyclyl-carboxamide compounds and methods of use” (Genentech, Inc., priority 2012, dated 2016).
pKi: −log10 of the molar value.

Molecular target: PIM1 (Homo sapiens (Human), UniProt P11309)
Assay: biochemical
Format: biochemical
Details: 20 pM PIM1, 1 μM FAM-peptide, 10 μM ATP, 90 minutes at room temperature; read-out: PIM1 LC3K (KI)

Sequence of PIM1 (P11309 whole entry): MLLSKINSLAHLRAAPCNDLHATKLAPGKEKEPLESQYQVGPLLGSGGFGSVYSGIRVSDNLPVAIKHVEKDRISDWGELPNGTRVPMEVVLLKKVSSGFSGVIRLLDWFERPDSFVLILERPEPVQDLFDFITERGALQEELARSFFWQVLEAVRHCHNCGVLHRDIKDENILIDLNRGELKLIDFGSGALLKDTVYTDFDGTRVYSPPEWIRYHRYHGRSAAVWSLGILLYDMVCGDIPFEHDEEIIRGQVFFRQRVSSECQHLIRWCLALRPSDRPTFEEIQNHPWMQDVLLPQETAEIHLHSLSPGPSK

Compound | pKi
Cc1c(-c2nc(C(=O)Nc3cnn(C)c3[C@@H]3CC[C@@H](N)[C@H](F)CO3)cs2)cnn1C [Example 242, N-(5-((2S,5R,6S)-5-amino-6-fluorooxepan-2-yl)-1-methyl-1H-pyrazol-4-yl)-2-(1,5-dimethyl-1H-pyrazol-4-yl)thiazole-4-carboxamide] | 9.66
Cn1ncc(NC(=O)c2nc(-c3cccc(Cl)c3F)sc2N)c1[C@@H]1CC[C@@H](N)[C@H](F)CO1 [Example 338, 5-amino-N-(5-((2S,5R,6S)-5-amino-6-fluorooxepan-2-yl)-1-methyl-1H-pyrazol-4-yl)-2-(3-chloro-2-fluorophenyl)thiazole-4-carboxamide] | 11.15
Cn1ncc(NC(=O)c2nc(-c3c(F)cccc3F)sc2N)c1[C@@H]1CC[C@@H](CN)O1 (stereo in doubt) [Example 155, 5-Amino-N-[5-[5-(aminomethyl)tetrahydrofuran-2-yl]-1-methyl-pyrazol-4-yl]-2-(2,6-difluorophenyl)thiazole-4-carboxamide] | 9.98
Cn1ncc(NC(=O)c2nc(-c3c(F)cccc3F)sc2N)c1C1CC[C@@H](O)[C@@H](O)CO1 (stereo partly drawn) [Example 111, 5-amino-2-(2,6-difluorophenyl)-N-(5-((5R,6S)-5,6-dihydroxyoxepan-2-yl)-1-methyl-1H-pyrazol-4-yl)thiazole-4-carboxamide] | 9.37
COc1ccc(F)c(F)c1-c1nc(C(=O)Nc2cnn(C)c2[C@@H]2CC[C@@H](N)[C@@H](F)CO2)c(N)s1 [Example 277, 5-amino-N-(5-((2S,5R,6R)-5-amino-6-fluorooxepan-2-yl)-1-methyl-1H-pyrazol-4-yl)-2-(2,3-difluoro-6-methoxyphenyl)thiazole-4-carboxamide] | 9.84
C[C@@H](O)c1cc(F)c(-c2nc(C(=O)Nc3cnn(C)c3[C@@H]3CC[C@@H](N)[C@H](F)CO3)cs2)c(F)c1 [Example 304, N-(5-((2S,5R,6S)-5-amino-6-fluorooxepan-2-yl)-1-methyl-1H-pyrazol-4-yl)-2-(2,6-difluoro-4-((R)-1-hydroxyethyl)phenyl)thiazole-4-carboxamide] | 10.85
Cc1ccc(F)c(-c2nc(C(=O)Nc3cnn(C)c3[C@@H]3CC[C@@H](N)[C@@H](F)CO3)c(N)s2)c1 [Example 274, 5-amino-N-(5-((2S,5R,6R)-5-amino-6-fluorooxepan-2-yl)-1-methyl-1H-pyrazol-4-yl)-2-(2-fluoro-5-methylphenyl)thiazole-4-carboxamide] | 10.70
Cn1ncc(NC(=O)c2nc(-c3cc(F)cc(F)c3F)sc2N)c1[C@@H]1CC[C@@H](N)[C@@H](F)CO1 [Example 261, 5-amino-N-(5-((2S,5R,6R)-5-amino-6-fluorooxepan-2-yl)-1-methyl-1H-pyrazol-4-yl)-2-(2,3,5-trifluorophenyl)thiazole-4-carboxamide] | 10.43
COc1ccc(-c2nc(C(=O)Nc3cnn(C)c3[C@@H]3CC[C@@H](N)[C@H](F)CO3)cs2)c(F)c1 [Example 293, N-(5-((2S,5R,6S)-5-amino-6-fluorooxepan-2-yl)-1-methyl-1H-pyrazol-4-yl)-2-(2-fluoro-4-methoxyphenyl)thiazole-4-carboxamide] | 10.23
Cn1ncc(NC(=O)c2csc(-c3cccc(F)c3F)n2)c1[C@@H]1CC[C@@H](N)[C@H](F)CO1 [Example 306, N-(5-((2S,5R,6S)-5-amino-6-fluorooxepan-2-yl)-1-methyl-1H-pyrazol-4-yl)-2-(2,3-difluorophenyl)thiazole-4-carboxamide] | 10.36
CC1C(c2c(NC(=O)c3nc(-c4c(F)cccc4F)sc3N)cnn2C)OCC(C)(O)C1N (centres unmarked) [Example 142, 5-amino-N-[5-(4-amino-5-hydroxy-3,5-dimethyl-tetrahydropyran-2-yl)-1-methyl-pyrazol-4-yl]-2-(2,6-difluorophenyl)thiazole-4-carboxamide] | 9.36
C[C@@H]1O[C@H](c2c(NC(=O)c3nc(-c4c(F)cccc4F)sc3N)cnn2C)CC(F)(F)[C@]1(C)N [Example 185, 5-Amino-N-(5-((2S,5R,6S)-5-amino-4,4-difluoro-5,6-dimethyltetrahydro-2H-pyran-2-yl)-1-methyl-1H-pyrazol-4-yl)-2-(2,6-difluorophenyl)thiazole-4-carboxamide] | 8.36
Cn1ncc(NC(=O)c2nc(-c3cccc(F)c3C(F)(F)F)sc2N)c1[C@@H]1CC[C@@H](N)[C@H](F)CO1 [Example 336, 5-amino-N-(5-((2S,5R,6S)-5-amino-6-fluorooxepan-2-yl)-1-methyl-1H-pyrazol-4-yl)-2-(3-fluoro-2-(trifluoromethyl)phenyl)thiazole-4-carboxamide] | 9.73
Cn1ncc(NC(=O)c2csc(-c3ccccc3C(F)(F)F)n2)c1[C@@H]1CC[C@@H](N)[C@H](F)CO1 [Example 311, N-(5-((2S,5R,6S)-5-amino-6-fluorooxepan-2-yl)-1-methyl-1H-pyrazol-4-yl)-2-(2-(trifluoromethyl)phenyl)thiazole-4-carboxamide] | 8.78

Further compounds by rising pKi, results first:

pKi | Compound
9.55 | Cn1cc(-c2nc(C(=O)Nc3cnn(C)c3[C@@H]3CC[C@@H](N)[C@@H](F)CO3)cs2)c(C(F)(F)F)n1 [Example 252, N-(5-((2S,5R,6R)-5-amino-6-fluorooxepan-2-yl)-1-methyl-1H-pyrazol-4-yl)-2-(1-methyl-3-(trifluoromethyl)-1H-pyrazol-4-yl)thiazole-4-carboxamide]
9.77 | Cn1ncc(NC(=O)c2csc(-c3cnn(C)c3C(F)(F)F)n2)c1[C@@H]1CC[C@@H](N)[C@@H](F)CO1 [Example 283, N-(5-((2S,5R,6R)-5-amino-6-fluorooxepan-2-yl)-1-methyl-1H-pyrazol-4-yl)-2-(1-methyl-5-(trifluoromethyl)-1H-pyrazol-4-yl)thiazole-4-carboxamide]
9.98 | Cn1ncc(NC(=O)c2nc(-c3c(F)cccc3C(F)(F)F)sc2N)c1[C@@H]1CC[C@@H](N)[C@H](F)CO1 [Example 331, 5-amino-N-(5-((2S,5R,6S)-5-amino-6-fluorooxepan-2-yl)-1-methyl-1H-pyrazol-4-yl)-2-(2-fluoro-6-(trifluoromethyl)phenyl)thiazole-4-carboxamide]
10.00 | Cn1ncc(NC(=O)c2nc(-c3c(F)cccc3F)sc2N)c1[C@H]1C[C@H](F)[C@@H](N)CCO1 [Example 137, 5-amino-N-(5-((2R,4S,5S)-5-amino-4-fluorooxepan-2-yl)-1-methyl-1H-pyrazol-4-yl)-2-(2,6-difluorophenyl)thiazole-4-carboxamide]
10.08 | CO[C@H]1CO[C@H](c2c(NC(=O)c3nc(-c4ccccc4C(F)(F)F)sc3N)cnn2C)CC[C@H]1N [Example 220, 5-amino-N-(5-((2S,5R,6R)-5-amino-6-methoxyoxepan-2-yl)-1-methyl-1H-pyrazol-4-yl)-2-(2-(trifluoromethyl)phenyl)thiazole-4-carboxamide]
10.10 | Cn1ncc(NC(=O)c2ccc(F)c(-c3c(F)cc(C(C)(C)O)cc3F)n2)c1[C@@H]1CC[C@@H](N)[C@@H](F)CO1 [Example 289, N-(5-((2S,5R,6R)-5-amino-6-fluorooxepan-2-yl)-1-methyl-1H-pyrazol-4-yl)-6-(2,6-difluoro-4-(2-hydroxypropan-2-yl)phenyl)-5-fluoropicolinamide]
10.12 | Cn1ncc(NC(=O)c2nc(-c3c(F)cccc3F)sc2N)c1C1CC(F)(F)CC(N)CO1 (centres unmarked) [Example 133, 5-amino-N-[5-(6-amino-4,4-difluoro-oxepan-2-yl)-1-methyl-pyrazol-4-yl]-2-(2,6-difluorophenyl)thiazole-4-carboxamide]
10.24 | Cn1ncc(NC(=O)c2nc(-c3cnn(C)c3C(F)(F)F)sc2N)c1[C@@H]1CC[C@@H](N)[C@H](F)CO1 [Example 282, 5-amino-N-(5-((2S,5R,6S)-5-amino-6-fluorooxepan-2-yl)-1-methyl-1H-pyrazol-4-yl)-2-(1-methyl-5-(trifluoromethyl)-1H-pyrazol-4-yl)thiazole-4-carboxamide]
10.29 | Cn1ncc(NC(=O)c2nc(-c3ccncc3F)sc2N)c1[C@@H]1CC[C@@H](N)[C@@H](F)CO1 [Example 182, 5-Amino-N-[5-[(2S,5R,6R)-5-amino-6-fluoro-oxepan-2-yl]-1-methyl-pyrazol-4-yl]-2-(3-fluoro-4-pyridyl)thiazole-4-carboxamide]
10.44 | COc1ccc(-c2nc(C(=O)Nc3cnn(C)c3[C@@H]3CC[C@@H](N)[C@H](F)CO3)ccc2F)c(F)c1 [Example 226, N-(5-((2S,5R,6S)-5-amino-6-fluorooxepan-2-yl)-1-methyl-1H-pyrazol-4-yl)-5-fluoro-6-(2-fluoro-4-methoxyphenyl)picolinamide]
10.51 | COc1cc(F)c(-c2nc(C(=O)Nc3cnn(C)c3[C@@H]3CC[C@@H](N)[C@H](F)CO3)cs2)c(F)c1 [Example 296, N-(5-((2S,5R,6S)-5-amino-6-fluorooxepan-2-yl)-1-methyl-1H-pyrazol-4-yl)-2-(2,6-difluoro-4-methoxyphenyl)thiazole-4-carboxamide]
10.60 | CC[C@]1(CO)CO[C@H](c2c(NC(=O)c3nc(-c4c(F)cccc4F)sc3N)cnn2C)OC1 [Example 162, 5-Amino-2-(2,6-difluorophenyl)-N-[5-[5-ethyl-5-(hydroxymethyl)-1,3-dioxan-2-yl]-1-methyl-pyrazol-4-yl]thiazole-4-carboxamide]
10.68 | Cn1ncc(NC(=O)c2csc(-c3c(F)cc(C(C)(C)O)cc3F)n2)c1[C@@H]1CC[C@@H](N)[C@H](F)CO1 [Example 297, N-(5-((2S,5R,6S)-5-amino-6-fluorooxepan-2-yl)-1-methyl-1H-pyrazol-4-yl)-2-(2,6-difluoro-4-(2-hydroxypropan-2-yl)phenyl)thiazole-4-carboxamide]
11.15 | Cn1ncc(NC(=O)c2nc(-c3ccccc3F)sc2N)c1[C@@H]1CC[C@@H](N)[C@@H](F)CO1 [Example 186, 5-Amino-N-(5-((2S,5R,6R)-5-amino-6-fluorooxepan-2-yl)-1-methyl-1H-pyrazol-4-yl)-2-(2-fluorophenyl)thiazole-4-carboxamide]
11.15 | Cc1c(-c2nc(C(=O)Nc3cnn(C)c3[C@@H]3CC[C@@H](N)[C@@H](F)CO3)c(N)s2)cnn1C [Example 255, 5-amino-N-(5-((2S,5R,6R)-5-amino-6-fluorooxepan-2-yl)-1-methyl-1H-pyrazol-4-yl)-2-(1,5-dimethyl-1H-pyrazol-4-yl)thiazole-4-carboxamide]
